In patent US11419852B2, “Beta-lactam compounds or salts thereof for use in long-acting prevention or treatment of a glucose metabolism disorder” (GLYCOLYSIS BIOMED CO., LTD., priority 2019, dated 2022):
Marks after values point to notes of the source that are not given here.

Tested on: db/db mice
Experiment: Fasting plasma glucose (FPG) measurement
Assay type: in vivo
Settings: for Average FPG level: dosing 6 weeks
Description: Four to five weeks old db/db mice (BKS.Cg-Dock7^m+/+Lepr^db/JNarl) and m/m mice (BKS.Cg-Dock7^m+/Dock7^m+) were obtained from National Laboratory Animal Center (Nangang, Taipei, Taiwan). These animals were maintained in a facility with a 12-h dark-light cycle at 24±2° C. and 65±5% humidity and were provided food (No. 5001; PMI Nutrition International, Brentwood, Mo.) and water ad libitum. For experiments, the average body weight of m/m mice was approximately 20 g, and that of db/db mice was approximately 30 g.
For each mouse, blood was sampled from the tail vein and measured for FPG levels using a blood glucose meter (OneTouch UltraEasy, Johnson & Johnson, USA) at a predestined time point.

Structure (SMILES): C[C@@H](O)[C@H]1C(=O)N2C(C(=O)O)=C(S[C@@H]3CN[C@H](C(=O)Nc4cccc(C(=O)O)c4)C3)[C@H](C)[C@H]12 [DMH, ertapenem]
- Duration of blood-glucose-lowering effect after treatment was stopped (Ex 2, db/db mice): at least 6 weeks
- Lowering blood glucose levels (FPG) in db/db mice (Ex 2, week 3, 0.1 mg/g bw and 0.4 mg/g bw vs metformin 0.3 mg/g bw): as effective as metformin
- Average FPG level (Ex 2 G4 db/db, DMH i.p. 0.1 mg/g bw/day, week 0): 139 ± 21^b
- Average FPG level (Ex 2 G4 db/db, DMH i.p. 0.1 mg/g bw/day, week 3): 134 ± 21^b
- Average FPG level (Ex 2 G4 db/db, DMH i.p. 0.1 mg/g bw/day, week 6): 219 ± 36^b
- Average FPG level (Ex 2 G4 db/db, DMH i.p. 0.1 mg/g bw/day, week 9): 217 ± 37^bc
- Average FPG level (Ex 2 G4 db/db, DMH i.p. 0.1 mg/g bw/day, week 12): 154 ± 30^ab
- Average FPG level (Ex 2 G4 db/db, DMH i.p. 0.1 mg/g bw/day, week 16): 126 ± 43^ab
- Average FPG level (Ex 2 G4 db/db, DMH i.p. 0.1 mg/g bw/day, week 18): 263 ± 58^b
- Average FPG level (Ex 2 G5 db/db, DMH i.p. 0.2 mg/g bw/day, week 0): 142 ± 20^b
- Average FPG level (Ex 2 G5 db/db, DMH i.p. 0.2 mg/g bw/day, week 3): 158 ± 25^bc
- Average FPG level (Ex 2 G5 db/db, DMH i.p. 0.2 mg/g bw/day, week 6): 166 ± 21^b
- Average FPG level (Ex 2 G5 db/db, DMH i.p. 0.2 mg/g bw/day, week 9): 212 ± 30^bc
- Average FPG level (Ex 2 G5 db/db, DMH i.p. 0.2 mg/g bw/day, week 12): 191 ± 42^bc
- Average FPG level (Ex 2 G5 db/db, DMH i.p. 0.2 mg/g bw/day, week 16): 154 ± 56^ab
- Average FPG level (Ex 2 G5 db/db, DMH i.p. 0.2 mg/g bw/day, week 18): 308 ± 51^b
- Average FPG level (Ex 2 G6 db/db, DMH i.p. 0.4 mg/g bw/day, week 0): 141 ± 23^b
- Average FPG level (Ex 2 G6 db/db, DMH i.p. 0.4 mg/g bw/day, week 3): 121 ± 23^ab
- Average FPG level (Ex 2 G6 db/db, DMH i.p. 0.4 mg/g bw/day, week 6): 175 ± 30^b
- Average FPG level (Ex 2 G6 db/db, DMH i.p. 0.4 mg/g bw/day, week 9): 172 ± 27^b
- Average FPG level (Ex 2 G6 db/db, DMH i.p. 0.4 mg/g bw/day, week 12): 166 ± 26^ac
- Average FPG level (Ex 2 G6 db/db, DMH i.p. 0.4 mg/g bw/day, week 16): 108 ± 22^ab
- Average FPG level (Ex 2 G6 db/db, DMH i.p. 0.4 mg/g bw/day, week 18): 266 ± 35^b

Structure (SMILES): CN(C)C(=N)N=C(N)N [Met, metformin]
- Average FPG level (Ex 2 G3 db/db, Met oral 0.3 mg/g bw/day, week 0): 160 ± 21^b
- Average FPG level (Ex 2 G3 db/db, Met oral 0.3 mg/g bw/day, week 3): 136 ± 13^b
- Average FPG level (Ex 2 G3 db/db, Met oral 0.3 mg/g bw/day, week 6): 222 ± 30^b
- Average FPG level (Ex 2 G3 db/db, Met oral 0.3 mg/g bw/day, week 9): 310 ± 25^d
- Average FPG level (Ex 2 G3 db/db, Met oral 0.3 mg/g bw/day, week 12): 267 ± 43^cd
- Average FPG level (Ex 2 G3 db/db, Met oral 0.3 mg/g bw/day, week 16): 215 ± 27^b
- Average FPG level (Ex 2 G3 db/db, Met oral 0.3 mg/g bw/day, week 18): 346 ± 50^b
